Test results from ChEMBL document CHEMBL1153026, “Cytotoxic 3,4-seco-cycloartane triterpenes from Gardenia sootepensis” (J Nat Prod, 2009).
Values after ≈ are worked out from the molar mass of the structure shown.

How the values were obtained:
[1] = system: BT-474; experiment: Cytotoxicity against human BT474 cells after 3 days by MTT assay; format: functional, cell-based; details: BT-474, 72 h
[2] = Cytotoxicity against human KATO III cells after 3 days by MTT assay; format: functional, cell-based, KATO III cell; details: 72 h
[3] = system: SW-620; experiment: Cytotoxicity against human SW620 cells after 3 days by MTT assay; format: functional, cell-based; details: SW-620, 72 h
[4] = system: HepG2; experiment: Cytotoxicity against human HepG2 cells after 3 days by MTT assay; format: functional, cell-based; details: HepG2, 72 h
[5] = Cytotoxicity against human ChaGo cells after 3 days by MTT assay; format: functional, cell-based; details: 72 h

Compound	IC50 [1] [µg/mL]	IC50 [2] [µg/mL]	IC50 [3] [µg/mL]	IC50 [4] [µg/mL]	IC50 [5] [µg/mL]
C=C1C(=O)O[C@H]2C[C@@H]3[C@@]4(CC[C@]5(C)[C@H]([C@@H](C)CC/C=C(\C)C=O)CC[C@@]35C)C[C@]4(CCC(=O)OC)[C@@H]12 [CORONALOLIDE METHYL ESTER]	> 10	8.64 (≈ 17.4 µM)	6.19 (≈ 12.5 µM)	6.8 (≈ 13.7 µM)	> 10
C=C1C(=O)O[C@@H]2C[C@@H]3[C@]4(CC[C@]5(C)[C@@H]([C@H](C)CC/C=C(\C)C=O)CC[C@@]35C)C[C@]4(CCC(=O)O)[C@H]12 [CORONALOLIDE]	6.59 (≈ 13.7 µM)	5.85 (≈ 12.1 µM)	4.98 (≈ 10.3 µM)	6.41 (≈ 13.3 µM)	5.42 (≈ 11.2 µM)
COc1cccc2c1C(=O)c1c(O)c3c(c(O)c1C2=O)C[C@@](O)(C(=O)CO)C[C@@H]3O[C@H]1C[C@H](N)[C@H](O)[C@H](C)O1 [DOXORUBICIN]	8.92 (≈ 16.4 µM)	5.45 (≈ 10 µM)	> 10	3.36 (≈ 6.18 µM)	3.98 (≈ 7.32 µM)
C=C(CO)[C@@H]1CC[C@H]2[C@]3(CC[C@]4(C)[C@@H]([C@H](C)CCC=C(C)C)CC[C@@]24C)C[C@]13CCC(=O)O [SECAUBRYENOL]	> 10	> 10	> 10	> 10	> 10
C=C1C(=O)O[C@@H]2C[C@@H]3[C@]4(CC[C@]5(C)[C@@H]([C@H](C)CC/C=C(\C)CO)CC[C@@]35C)C[C@]4(CCC(=O)OC)[C@H]12 [SOOTEPIN A]	5.92 (≈ 11.9 µM)	2.1 (≈ 4.21 µM)	1.8 (≈ 3.61 µM)	2.9 (≈ 5.82 µM)	3.97 (≈ 7.96 µM)
C=C1C(=O)O[C@@H]2C[C@@H]3[C@]4(CC[C@]5(C)[C@@H]([C@H](C)CCC=C(C)C)CC[C@@]35C)C[C@]4(CCC(=O)O)[C@H]12 [SOOTEPIN B]	4.98 (≈ 10.6 µM)	3.68 (≈ 7.85 µM)	5.57 (≈ 11.9 µM)	5.86 (≈ 12.5 µM)	5.24 (≈ 11.2 µM)
C=C(CO)[C@@H]1CC[C@@H]2[C@]3(CC[C@]4(C)[C@@H]([C@H](C)CCC=C(C)C)CC[C@@]24C)C[C@]13CCC(=O)OC [SOOTEPIN C]	> 10	7.79 (≈ 16.5 µM)	> 10	3.49 (≈ 7.41 µM)	> 10
C=C(CO)[C@@H]1CC[C@@H]2[C@]3(CC[C@]4(C)[C@@H]([C@H](C)CC/C=C(\C)C=O)CC[C@@]24C)C[C@]13CCC(=O)OC [SOOTEPIN D]	> 10	7.35 (≈ 15.2 µM)	> 10	> 10	> 10
C=C(C)[C@@H]1CC[C@@H]2[C@]3(CC[C@]4(C)[C@@H]([C@H](C)CCC=C(C)C)CC[C@@]24C)C[C@]13CCC(=O)O [SOOTEPIN E]	6.07 (≈ 13.8 µM)	1.91 (≈ 4.33 µM)	4.22 (≈ 9.58 µM)	3.14 (≈ 7.12 µM)	5.2 (≈ 11.8 µM)
C=C1C(=O)O[C@@H]2C[C@@H]3[C@]4(CC[C@]5(C)[C@@H]([C@H](C)CCC=C(C)C)CC[C@@]35C)C[C@]4(CCC(=O)OC)[C@H]12 [TUBIFEROLIDE METHYL ESTER]	5.33 (≈ 11 µM)	4.9 (≈ 10.2 µM)	5.78 (≈ 12 µM)	3.41 (≈ 7.06 µM)	4.08 (≈ 8.45 µM)
